For this assay, the target named is T1, Sin3 occupancy (Saccharomyces cerevisiae, UniProt P22579).
T1 construct: expressed in transfected cells; host or cells: S. cerevisiae JOY116 (sin3Δ) transformed with YEplac181-Sin3-(HA)3
As to the kind of experiment: ChIP-qPCR and ChIP-seq of Sin3-(HA)3 in yeast. It counts as cell-based, S. cerevisiae. Particulars: for Sin3 occupancy at URS-URA3 and INO1 (ChIP-qPCR) / number of genes with decreased Sin3 occupancy (ChIP-seq): 400 μM; for Sin3 occupancy at URS-URA3 and INO1 (ChIP-qPCR): 2 h; for number of genes with decreased Sin3 occupancy (ChIP-seq) / number of genes with reduced Sin3 occupancy (ChIP-seq): of 545 Sin3-occupied genes; for number of genes with decreased Sin3 occupancy (ChIP-seq): FIG. 5D; for number of genes with reduced Sin3 occupancy (ChIP-seq): FIG. 5K. Here is the method:
ChIP procedures in yeast were adapted from previously established protocols, with minor modifications [Sertil et al 2007, Jezek et al 2017, Barski et al 2007]. Briefly, yeast S. cerevisiae JOY116 (sin3Δ) cells transformed with the YEplac181-Sin3-(HA)3 plasmid were cultured in liquid SC-L, until OD600 nm reached ˜0.7. […] (200 rpm). After 2 h of incubation, cells were treated with 1% formaldehyde for 20 min at 4° C. for cross-linking. Then, 125 mM glycine was applied for 5 min at room temperature to quench cross-linking. Yeast cells were centrifuged (10 min at 1,000 g), and the resulting pellets were washed twice with 50 mL ice-cold phosphate-buffered saline (PBS). Yeast pellets were resuspended in 500 μL of ChIP lysis buffer (50 mM HEPES-KOH pH 7.5, 140 mM NaCl, 1 mM EDTA, 1% Triton X-100, 0.1% sodium deoxycholate, 0.1% SDS, and yeast protease inhibitors). After that, 500 μL of the yeast suspensions in lysis buffer were mixed with 500 μL of zirconia beads in a screw-top microcentrifuge tube. For cell lysis, the tubes were vortexed at maximum speed for 15 min at 4° C. Cell lysates were collected by punching a hole on the bottom of the screw-cap tube, with a sterile needle, and centrifuging the lysates into new Eppendorf tubes. Then, 300 μL of lysates were added into 1.5 mL Bioruptor Pico microtubes with caps (Diagenode, cat #C30010016), and subsequent sonication was conducted with a Bioruptor Pico sonication device, in the following conditions: 30 s/3 cycles on, and 30 s/3 cycles off, at 4° C. The sonicated lysates were cleared by 30 min centrifugation at maximum speed at 4° C. The resulting cleared lysates, with sheared chromatin, were saved, snap freezed, and stored at −80° C. until use. Next, 10 μL cleared lysates were reverse-cross linked overnight, at 65° C., in the presence of proteinase K. Phenol-chloroform extractions and EtOH precipitations were then applied to purify the sheared DNA. DNA agarose gel running and DNA concentration measurements with a NanoDrop spectrophotometer were finally conducted to assess the size and yield of the sheared DNA, respectively.
For the pull-downs, 25 μg of sheared chromatin from each sample were diluted (1:10) in ice-cold dilution buffer (1% Triton X-100, 2 mM EDTA, 20 mM Tris-HCl pH 8, 150 mM NaCl, and yeast protease inhibitors), and mixed with 10 μg ChIP-grade anti-HA (Abcam, cat #ab9110), or isotype control anti-IgG (Abcam, cat #ab171870) antibodies. Then, 50 μL of pre-washed Dynabeads Protein G for Immunoprecipitation (ThermoFisher, cat #10003D) were added to each individual sample. Chromatin immunoprecipitation was performed by incubating samples at 4° C. overnight, under gentle shaking (300 rpm). The day after, the Dynabeads were washed three times with 1 mL ice-cold wash buffer (0.1% SDS, 1% Triton X-100, 2 mM EDTA, 20 mM Tris-HCl pH 8, 150 mM NaCl), and then once with 1 mL ice-cold final wash buffer (0.1% SDS, 1% Triton X-100, 2 mM EDTA pH 8, 20 mM Tris-HCl pH 8, 500 mM NaCl), using a magnetic rack. DNA was eluted with 120 μL elution buffer (1% SDS, 100 mM NaHCO3), by incubating samples at 30° C. for 15 min. For input, 10 μL of sheared cell lysates were added to 110 μL of elution buffer. Then, 4 μL proteinase K were added to the eluted DNA or inputs, and reverse-cross linking was achieved by incubating samples overnight at 65° C. After overnight incubation, phenol-chloroform extractions and EtOH precipitations were conducted to purify ChIP-DNA. The ChIP-DNA was eluted in a total volume of 200 μL ddH2O, and then used for ChIP-qPCR or ChIP-Seq. Briefly, for ChIP-qPCR, 4 μL of eluted ChIP-DNA were mixed with 5 μL of PowerUp SYBR Green master mix (Applied Biosystems, cat #A25743), and 1 μL of the primer mix (forward+reverse; 3 μM final concentration), for a total volume of 10 μL. Two technical replicates were generated for each DNA sample from three ChIP replicates. ChIP-DNA samples were then transferred into the 384-well skirted PCR plate (Applied Biosystems, cat #4343370). […]
(Real-time PCR tracks product formation cycle by cycle.)

Entries after “also recorded” stand apart in the source; their conditions may differ.

T1 sequence (P22579 whole entry): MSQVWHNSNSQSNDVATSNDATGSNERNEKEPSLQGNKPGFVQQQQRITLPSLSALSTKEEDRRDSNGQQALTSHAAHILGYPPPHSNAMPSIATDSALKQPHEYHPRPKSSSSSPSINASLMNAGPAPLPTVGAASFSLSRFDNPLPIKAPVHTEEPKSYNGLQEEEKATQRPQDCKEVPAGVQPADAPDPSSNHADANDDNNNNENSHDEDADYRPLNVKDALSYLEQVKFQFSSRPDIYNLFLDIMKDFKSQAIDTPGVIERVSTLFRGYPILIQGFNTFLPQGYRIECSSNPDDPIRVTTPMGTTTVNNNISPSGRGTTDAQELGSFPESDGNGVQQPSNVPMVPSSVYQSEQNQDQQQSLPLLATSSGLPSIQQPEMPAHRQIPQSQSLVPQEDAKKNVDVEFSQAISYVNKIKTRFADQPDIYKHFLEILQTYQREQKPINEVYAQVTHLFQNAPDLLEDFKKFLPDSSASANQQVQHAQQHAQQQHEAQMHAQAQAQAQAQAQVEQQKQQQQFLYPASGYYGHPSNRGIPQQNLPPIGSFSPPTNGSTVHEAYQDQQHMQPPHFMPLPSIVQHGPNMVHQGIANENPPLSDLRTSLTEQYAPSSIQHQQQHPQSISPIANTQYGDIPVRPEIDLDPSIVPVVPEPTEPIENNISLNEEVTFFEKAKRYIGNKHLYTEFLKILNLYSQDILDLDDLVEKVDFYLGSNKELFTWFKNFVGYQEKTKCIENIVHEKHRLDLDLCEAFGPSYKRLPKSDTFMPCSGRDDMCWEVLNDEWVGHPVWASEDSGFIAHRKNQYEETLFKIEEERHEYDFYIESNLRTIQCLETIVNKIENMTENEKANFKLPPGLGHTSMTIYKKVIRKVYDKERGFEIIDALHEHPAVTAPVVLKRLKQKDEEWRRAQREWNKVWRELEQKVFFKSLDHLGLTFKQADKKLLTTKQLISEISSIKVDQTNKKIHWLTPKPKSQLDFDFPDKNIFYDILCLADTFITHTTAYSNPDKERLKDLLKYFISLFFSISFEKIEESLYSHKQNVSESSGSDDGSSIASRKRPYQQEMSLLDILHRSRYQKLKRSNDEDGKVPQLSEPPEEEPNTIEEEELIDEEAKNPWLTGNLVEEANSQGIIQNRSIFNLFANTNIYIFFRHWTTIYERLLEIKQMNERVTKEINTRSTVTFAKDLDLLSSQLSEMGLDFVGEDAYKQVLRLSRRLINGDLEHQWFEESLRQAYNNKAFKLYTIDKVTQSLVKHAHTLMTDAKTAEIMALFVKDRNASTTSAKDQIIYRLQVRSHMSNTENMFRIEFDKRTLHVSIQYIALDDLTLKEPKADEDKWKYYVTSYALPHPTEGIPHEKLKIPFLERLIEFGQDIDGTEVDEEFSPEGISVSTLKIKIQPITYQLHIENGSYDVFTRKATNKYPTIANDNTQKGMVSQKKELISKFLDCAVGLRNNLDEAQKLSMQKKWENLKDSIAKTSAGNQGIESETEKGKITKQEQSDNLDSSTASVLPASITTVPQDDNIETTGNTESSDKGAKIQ

Regarding `CC(/C=C/C(=O)NO)=C\[C@@H](C)C(=O)c1ccc(N(C)C)cc1` [TSA, trichostatin A], the “Sin3 occupancy at URS-URA3 and INO1 (ChIP-qPCR)” value is “appeared to prevent recruitment of Sin3; also recorded: decreased occupancy”; the “number of genes with decreased Sin3 occupancy (ChIP-seq)” value is 142 genes; the “number of genes with reduced Sin3 occupancy (ChIP-seq)” value was 295 genes.
Take `CC(NC(=O)c1c(O)n2ccccc2nc1=O)c1ccccc1` (racemic) [E6]: the “Sin3 occupancy at URS-URA3 and INO1 (ChIP-qPCR)” value is “significantly decreased; also recorded: decreased occupancy”; the “number of genes with decreased Sin3 occupancy (ChIP-seq)” value is on record as 360 genes; the “number of genes with reduced Sin3 occupancy (ChIP-seq)” value is on record as 450 genes. In addition, the “Sin3 occupancy at INO1, IME2 and CAR1 (ChIP-Seq traces)” value (not at SPO3 or TRK2) is recorded as “reduced”.

For the origin of these results see US20240299393A1, “SMALL MOLECULE DISRUPTORS OF PROTEIN INTERACTIONS IN HISTONE DEACETYLASE COMPLEXES” (Dana-Farber Cancer Institute, Inc., priority 2021, published 2024).
